Literature values as cited in patent US20090258907A1, “COMPOUNDS USEFUL AS INHIBITORS OF ROCK KINASES” (ABBOTT LABORATORIES, priority 2008, published 2009).

Assays:
[1] = experimental myocardial infarction (MI); rat chronic hypertension induced congestive heart failure
[2] = test system: vascular smooth muscle cell (VSMC); conditions: vein grafts, weeks following the procedure
[3] = Zucker obese rats, 4 weeks
[4] = OLETF rats, high dose
[5] = CNS ischemic conditions
[6] = mouse, in vivo

Compound: O=S(=O)(c1cccc2cnccc12)N1CCCNCC1 [fasudil]
- effect on ischemia-reperfusion injury, myocardial infarct size and myocardial fibrosis [1]: decrease ischemia-reperfusion injury, myocardial infarct size, and myocardial fibrosis
- VSMC apoptosis [2]: enhanced
- intimal thickening and VSMC proliferation [2]: significantly suppressed
- blood pressure, glucose and lipid metabolism, insulin signalling, endothelial dysfunction [3]: reduced blood pressure, corrected glucose and lipid metabolism, improved insulin signalling and endothelial dysfunction
- development of diabetes, obesity, dyslipidemia; serum adiponectin [4]: completely suppressed the development of diabetes, obesity, and dyslipidemia and increased serum adiponectin levels
- cerebral blood flow and neuroprotection [5]: increased cerebral blood flow and was neuroprotective
- efficacy in animal models of epileptogenesis [6]: efficacy
